Results from patent US20150159192A1, “STERILIZATION INDICATORS INCLUDING A NEUTRALIZER AND METHODS” (3M INNOVATIVE PROPERTIES COMPANY, priority 2010, published 2015).
Like-named read-outs stand apart in the source and are kept apart here.

B1: Catalase (protein, UniProt P00432 2-527, looked up)
Catalase: ADNRDPASDQMKHWKEQRAAQKPDVLTTGGGNPVGDKLNSLTVGPRGPLLVQDVVFTDEMAHFDRERIPERVVHAKGAGAFGYFEVTHDITRYSKAKVFEHIGKRTPIAVRFSTVAGESGSADTVRDPRGFAVKFYTEDGNWDLVGNNTPIFFIRDALLFPSFIHSQKRNPQTHLKDPDMVWDFWSLRPESLHQVSFLFSDRGIPDGHRHMNGYGSHTFKLVNANGEAVYCKFHYKTDQGIKNLSVEDAARLAHEDPDYGLRDLFNAIATGNYPSWTLYIQVMTFSEAEIFPFNPFDLTKVWPHGDYPLIPVGKLVLNRNPVNYFAEVEQLAFDPSNMPPGIEPSPDKMLQGRLFAYPDTHRHRLGPNYLQIPVNCPYRARVANYQRDGPMCMMDNQGGAPNYYPNSFSAPEHQPSALEHRTHFSGDVQRFNSANDDNVTQVRTFYLKVLNEEQRKRLCENIAGHLKDAQLFIQKKAVKNFSDVHPEYGSRIQALLDKYNEEKPKNAVHTYVQHGSHLSAREKANL
notes: enzyme neutralizer from Sigma-Aldrich, 226 units added per vial

Experiments:
[1] = test system: Geobacillus stearothermophilus spores; test: Hydrogen peroxide neutralizers in BI recovery medium, spore outgrowth after STERRAD 100S cycle; assay type: cell-based; parameters: key to Negative Control / Positive Control: Pos*/Neg*—positive (yellow) or negative (purple) was discolored by the additive; Pos*/Neg*—positive (yellow) or negative (purple) was discolored by the additive; Neg^3—positive control did not grow
Experimental: This example compares the neutralization effectiveness of different additives in the biological indicators recovery medium. The additives (neutralizers) were added to the recovery media used in the 3M ATTEST 1292 Rapid Readout Biological Indicators. Catalase, L-cysteine, sodium thiosulfate, D-ethionine, S-methyl-cysteine, S-benzyl-L-cysteine, thiodiproprionic acid, potassium ferricyanide and sodium pyruvate were all purchased from Sigma-Aldrich Corporation, St. Louis, Mo. Isoascorbic acid was purchased from Alfa Aesar, Ward Hill, Mass. Methionine was purchased from Calbiochem, EMD Chemicals, Gibbstown, N.J.
3M ATTEST 1292 Biological Indicators were steam sterilized to kill the existing spore population. Two sets of 3M ATTEST 1292 BIs were evaluated, one set contained the paper spore carrier used in the commercially available indicator. In the second set, the spore carrier was replaced with fiberglass strips, commercially available as […] 230-11.0 (Crane &Co., Inc., Dalton, Mass.). The steam sterilized BIs were then exposed in a STERRAD 100S hydrogen peroxide/plasma sterilization cycle. Immediately following the hydrogen peroxide/plasma sterilization, the BIs containing media with and without additives were inoculated with less than 100 Geobacillus stearothermophilus spores recovered from a 3M ATTEST 1292 BI spore strip. The indicators were incubated at 60° C. (+/−2° C.) for 7 days and observed for growth, indicated by a color change from purple to yellow. A positive and negative control was tested for each additive. The positive controls were steam sterilized and inoculated with less than 100 spores. The negative controls were steam sterilized.

[2] = test system: Geobacillus stearothermophilus spores; test: Remediation of residual hydrogen peroxide, spore recovery method with sodium thiosulfate; assay type: cell-based
[3] = additive 1 g/l, CRANEGLAS fiberglass carrier, 7 days
[4] = additive 1 g/l, paper spore carrier, 7 days
[5] = additive 1 g/l, steam sterilized and inoculated with less than 100 spores, no H2O2
[6] = additive 1 g/l, steam sterilized, not inoculated
[7] = additive 2 g/l, CRANEGLAS fiberglass carrier, 7 days
[8] = additive 2 g/l, paper spore carrier, 7 days
[9] = additive 2 g/l, steam sterilized and inoculated with less than 100 spores, no H2O2
[10] = additive 2 g/l, steam sterilized, not inoculated
[11] = additive 4 g/l, CRANEGLAS fiberglass carrier, 7 days
[12] = additive 4 g/l, paper spore carrier, 7 days
[13] = additive 4 g/l, steam sterilized and inoculated with less than 100 spores, no H2O2
[14] = additive 4 g/l, steam sterilized, not inoculated
[15] = additive 8 g/l, CRANEGLAS fiberglass carrier, 7 days
[16] = additive 8 g/l, paper spore carrier, 7 days
[17] = additive 8 g/l, steam sterilized and inoculated with less than 100 spores, no H2O2
[18] = additive 8 g/l, steam sterilized, not inoculated

Row | Molecule | No. Pos. CRANEGLAS [1, 3] | No. Pos. Paper [1, 4] | Positive Control [1, 5] | Negative Control [1, 6] | No. Pos. CRANEGLAS [1, 7] | No. Pos. Paper [1, 8] | Positive Control [1, 9] | Negative Control [1, 10] | No. Pos. CRANEGLAS [1, 11] | No. Pos. Paper [1, 12] | Positive Control [1, 13] | Negative Control [1, 14] | No. Pos. CRANEGLAS [1, 15] | No. Pos. Paper [1, 16] | Positive Control [1, 17] | Negative Control [1, 18] | also measured
1 | CCSCC[C@@H](N)C(=O)O [D-ethionine] | 4 | 2 | Pos | Neg | 4 | 0 | Pos | Neg | 4 | 2 | Pos | Neg | 4 | 3 | Pos | Neg | 
2 | O=C1O[C@H]([C@H](O)CO)C(O)=C1O [Isoascorbic acid] | 0 | 3 | Pos | Neg | 4 | 3 | Pos | Neg* | 4 | 3 | Pos* | Neg* | 4 | 3 | Pos* | Neg* | Additive level that effectively neutralized the paper carriers ([1]; paper carriers): 1 gram per liter
3 | N[C@@H](CS)C(=O)O [L-cysteine] | 4 | 1 | Pos | Neg | 4 | 0 | Pos | Neg | 4 | 3 | Pos | Neg | 4 | 3 | Pos | Neg | 
4 | CSCC[C@H](N)C(=O)O [Methionine] | 4 | 0 | Pos | Neg | 4 | 0 | Pos | Neg | 4 | 3 | Pos | Neg | 4 | 3 | Pos | Neg | 
5 | N[C@@H](CSCc1ccccc1)C(=O)O [S-benzyl-L-cysteine] | 4 | 0 | Pos | Neg | 4 | 0 | Pos | Neg | 4 | 0 | Pos | Neg |  |  |  |  | 
6 | CSC[C@H](N)C(=O)O [S-methyl-cysteine] | 4 | 0 | Pos | Neg | 4 | 0 | Pos | Neg | 4 | 2 | Pos | Neg | 4 | 3 | Pos* | Neg | 
7 | CC(=O)C(=O)[O-].[Na+] [Sodium pyruvate, sodium pyruvate] |  | 0 | Pos | Neg |  | 2 | Pos | Neg |  | 3 | Pos | Neg |  | 3 | Pos | Neg | 
8 | O=S([O-])([O-])=S.[Na+].[Na+] [Sodium thiosulfate, sodium thiosulfate] |  |  |  |  |  |  |  |  |  |  |  |  |  |  |  |  | Spore recovery ability (in words) [2]: good spore recovery agent; Additive level that effectively neutralized the paper carriers [1]: 1 gram per liter; Negative Control [1]: Neg and Neg*; No. Pos. CRANEGLAS [1]: 4; No. Pos. Paper [1]: 3; Positive Control [1]: Pos
9 | O=C(O)CCSCCC(=O)O [Thiodiproprionic acid, thiodiproprionic acid] | 1 | 0 | Pos | Neg | 3 | 0 | Neg^3 | Neg | 3 | 0 | Neg^3 | Neg | 3 | 3 | Pos | Neg | 
10 | B1 |  |  |  |  |  |  |  |  |  |  |  |  |  |  |  |  | Neutralization of residual hydrogen peroxide (in words) [1]: sufficiently neutralized; No. Pos. CRANEGLAS ([1]; 226 units added per vial, CRANEGLAS fiberglass carrier, 7 days): 4; No. Pos. Paper ([1]; 226 units added per vial, paper spore carrier, 7 days): 3; Positive Control ([1]; 226 units added per vial, steam sterilized and inoculated): Pos; Negative Control ([1]; 226 units added per vial, steam sterilized, not inoculated): Neg
